Source: patent US6809107B1, “Neurotrophic pyrrolidines and piperidines, and related compositions and methods” (Ortho-McNeil Pharmaceutical, Inc., priority 1999, dated 2004)

Tests used:
[1] = target: T1, α-4,β-2 nicotinic acetycholine receptor (α4β2nAChR) (Rattus norvegicus, UniProt P09483+P12390); assay: Nicotinic acetylcholine receptor binding assay (3H-cytisine)
T1 construct: crude synaptic membrane preparations from rat cerebral cortex, striatum and hippocampus; from tissue; host or cells: rat cerebral cortex, striatum and hippocampus (crude synaptic membranes, P2 fraction)
T1 sequence (P09483 31-630): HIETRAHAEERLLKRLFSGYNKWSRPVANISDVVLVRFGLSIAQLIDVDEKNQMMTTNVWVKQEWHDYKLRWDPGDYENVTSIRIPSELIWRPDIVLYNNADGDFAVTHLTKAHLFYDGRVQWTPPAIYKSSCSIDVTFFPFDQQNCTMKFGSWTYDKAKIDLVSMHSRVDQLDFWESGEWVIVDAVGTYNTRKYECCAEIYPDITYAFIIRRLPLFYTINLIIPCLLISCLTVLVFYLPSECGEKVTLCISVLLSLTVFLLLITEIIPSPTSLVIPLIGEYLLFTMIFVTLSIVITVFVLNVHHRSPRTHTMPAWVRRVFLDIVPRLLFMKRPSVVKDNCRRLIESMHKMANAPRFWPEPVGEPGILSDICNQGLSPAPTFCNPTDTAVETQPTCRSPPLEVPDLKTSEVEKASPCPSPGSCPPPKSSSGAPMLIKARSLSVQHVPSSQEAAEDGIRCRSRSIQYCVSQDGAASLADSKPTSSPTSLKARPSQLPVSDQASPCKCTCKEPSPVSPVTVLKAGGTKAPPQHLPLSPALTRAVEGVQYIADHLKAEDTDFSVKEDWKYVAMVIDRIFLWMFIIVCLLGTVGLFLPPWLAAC
T1 sequence (P12390 25-500): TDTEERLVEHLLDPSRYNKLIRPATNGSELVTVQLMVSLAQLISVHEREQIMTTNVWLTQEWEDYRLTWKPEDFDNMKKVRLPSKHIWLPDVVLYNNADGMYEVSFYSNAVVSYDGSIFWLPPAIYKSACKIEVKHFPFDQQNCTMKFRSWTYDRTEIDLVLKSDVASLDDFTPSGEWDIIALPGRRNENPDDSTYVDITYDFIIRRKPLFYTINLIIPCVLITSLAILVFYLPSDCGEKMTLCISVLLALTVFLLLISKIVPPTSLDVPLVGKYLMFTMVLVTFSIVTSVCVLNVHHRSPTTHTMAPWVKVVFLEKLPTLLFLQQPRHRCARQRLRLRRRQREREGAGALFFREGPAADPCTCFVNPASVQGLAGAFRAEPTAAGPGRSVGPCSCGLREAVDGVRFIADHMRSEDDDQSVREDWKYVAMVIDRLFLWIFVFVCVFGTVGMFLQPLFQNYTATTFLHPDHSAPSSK
Description: Binding of ^3H-cytisine to neuronal nicotinic acetylcholine receptors is accomplished using crude synaptic membrane preparations from rat cerebral cortex, striatum and hippocampus. Either fresh or frozen membranes are homogenized in 50 volumes of 10 mM HEPES (N-2-hydroxyethylpiperazine-N′-2-ethanesulfonic acid, pH 7.4) and centrifuged at 42,000 g. The P2 fraction is resuspended in 40 volumes of 10 mM HEPES and centrifuged at 42,000 g. This step is repeated and the P2fraction was resuspended in 25 volumes (e.g., 1 g of tissue into 25 mL) of a medium comprised of Na^+-HEPES buffer (10 mM, pH 7.4), 5 mM MgCl2, 0.01% powdered bovine serum albumin (BSA) and 100 mM NaCl. […] The binding reaction is terminated by filtration using a Brandel Cell Harvester; the amount of bound ^3H-cytisine for each sample is quantitated using a Wallac LKB 1205 Betaplate liquid scintillation counter. […] Nonspecific binding is determined using 10 μM (+)-epibatidine to block all binding of ^3H-cytisine to the α-4,β-2 nicotinic acetycholine receptor (α4β2nAChR). The activity of each test compound is calculated as follows: after correcting for nonspecific binding, the percent inhibition of specific binding (total binding minus nonspecific) is calculated. […] The IC50 values are calculated by performing a nonlinear regression analysis of the data using a standard regression program.

[2] = test system: Primary Rat Hippocampal Cells; assay: Neurite outgrowth assay in primary rat hippocampal cells; assay type: cell-based; conditions: MAP-2 immunofluorescence, active if greater than mean DMSO-treated control
Description: Hippocampal cells are dissected from the brains of embryonic day 18 rat pups and dissociated with trypsin (1 mg/mL) and trituration. Cells are seeded at 30,000 cells/well in 96-well plates filled with 100 μL MEM and 10% FBS. At 7 days in culture, cells are fixed with 4% paraformaldehyde and immuno-fluorescence is performed.
(§1) Cultures are incubated with normal horse serum (1:50; Vector Labs) for about 20 min, rinsed and then incubated with primary antibody, microtubule associated-protein 2 (anti-mouse MAP-2; 1:1000; Chemicon) for about 2 h at about RT. Following primary antibody, cultures are rinsed and incubated with fluorescein anti-mouse IgG (rat absorbed; 1:50; Vector Labs) for about 1 h. After fluorescein incubation, the cultures are rinsed and read in PBS on a fluorescent plate reader (excitation: 485 nm; emission: 530 nm). […] The response to test compound is reported as percent of DMSO-treated control.

[3] = test system: Long-Evans rats, compressed facial nerve; assay: Rat facial nerve compression model; assay type: in vivo; conditions: p.o. about 20 mg/kg twice a day for 15 days after surgery; compared to vehicle and internal control; FIG. 1
Description: In this model, compressing the facial nerve causes paralysis of the whisker muscle on that side of the face. The untreated facial nerve on the other side functions as an internal control. […] The whisker movement recovery rate on the paralyzed side compared to the vehicle and internal control is shown in this FIGURE.
Long-Evans rats are anesthetized under ketamine (60 mg/kg)/xylazine (6mg/kg). The facial nerve is exposed and mechanically compressed with forceps near the stylomastoid foramen unilaterally with the opposite, non-lesioned side serving as an internal control. […] Rats received test compound p.o. at about 20 mg/kg twice a day for 15 days after the surgery. Control rats received vehicle only. Three to eight rats are tested in each group. Restoration of whisker movement after the treatment with compounds of the present invention is recorded at different post-operative time points daily, up to two weeks, and is shown in FIG. 1.

[4] = test system: Dorsal Root Ganglion (DRG); assay: Dorsal Root Ganglion (DRG) culture, neurite outgrowth; assay type: cell-based, rat; design: key: + = Positive results for each experiment; − = Negative results for each experiment; conditions: neurite outgrowth from DRG, test compound 50-250 nM, days 1-5; positive if neurites of ≧1 diameter of the DRG; one symbol per experiment
Description: Dorsal Root Ganglion (DRG) Culture
DRG are dissected from newborn or 1-day-old CD rats and placed into PBS on ice. After rinsing twice with sterile plating medium, DRG are transferred to empty wells of a 6-well plate coated with polyomithine/laminin (Becton Dickinson Labware) using #7 curved forceps. Three ml/well of plating medium are then added very gently, so as not to disturb the DRG. Plating medium is Leibovitz's L-15 medium (Gibco), plus 0.6% glucose, 33 mM KCl, 10% FCS, 10 mM Hepes and penicillin/streptomycin/glutamine. After overnight incubation at about 37° C. in 5% CO2, this medium is replaced with 3 mL/well of assay medium [Leibovitz's L-15 medium plus 0.6% glucose, 1% FCS, 1% N-2 supplement (Gibco), 10 μM ara-C, 10 mM Hepes, and penicillin/streptomycin/glutamine] containing either vehicle (DMSO, 1/200,000), positive control (2-4 ng/mL NGF) or test compound (50-250 nM). All media are prepared fresh daily. DRG are microscopically examined for neurite outgrowth on days 1-5.

[5] = test system: Human M17 Neuroblastoma Cells; assay: Neurite outgrowth assay in human M17 neuroblastoma cells; assay type: cell-based; conditions: MAP-2 immunofluorescence, active if greater than mean DMSO-treated control
Description: M17 human neuroblastoma cells are cultured in 1:1 ratio of EMEM and Ham's F12 with 1×NEM and 10% FBS. The culture media contains 1×PSN antibiotic and is exchanged every other day, and the cells are passed in log phase near confluence.
as §1

Question: For `c1cncc(OCc2ncoc2[C@@H]2CCCN2)c1` [Compound 6], which IC50 [1] is on record?
Answer: Its IC50 is 801 nM.

Question: With `O=C(C(=O)N1CCCC1c1nnc([C@@H]2CCCN2C(=O)C(=O)C2CCCCC2)o1)C1CCCCC1` (some centres unmarked) [Compound 49] as the compound, how does the melting point read?
Answer: The melting point was 132 to 133 °C.

Question: For `CCC(C)(C)C(=O)C(=O)N1CCC[C@@H]1C(=O)NNC(=O)[C@H]1CCCN1C(=O)C(=O)C(C)(C)CC` [Compound 63], which “Rat Hippocampal Cell Response” value [2] is on record?
Answer: Its value is 110% of DMSO-treated control.

Question: For `CCC(C)(C)C(=O)C(=O)N1CCCC1c1nnc([C@@H]2CCCN2C(=O)C(=O)C(C)(C)CC)o1` (some centres unmarked) [Compound 30], which melting point is on record?
Answer: Its melting point is 123 to 124 °C.

Question: And the “Restoration of whisker movement on the paralyzed side” value [3]?
Answer: Its value is “restored more rapidly”.

Question: Which DRG [4] does the source give for `CCC(C)(C)C(=O)C(=O)N1CCC[C@H]1C(=O)NNC(=O)[C@@H]1CCCN1C(=O)C(=O)C(C)(C)CC` [Compound 24] here?
Answer: Its DRG is “+ and −”.

Question: With `CCC(C)(C)C(=O)C(=O)N1CCC[C@H]1c1nc(COc2cccnc2)cs1` [Compound 19] as the compound, how does the “M17 Cell Response” value [5] read?
Answer: The value was 110% of DMSO-treated control.

Question: With `c1cncc(OCc2csc([C@@H]3CCCN3)n2)c1` [Compound 17] as the compound, how does the IC50 [1] read?
Answer: Its IC50 is 63.8 nM.
